These results are taken from ChEMBL document CHEMBL4507282, “Data for DCP probe BI-1950” (2021).

The structures appear in SMILES notation.

The target of data set [1] is Gamma-aminobutyric acid receptor subunit alpha-1 (Rattus norvegicus) (UniProt P62813). In words: GABAACL+ Eurofins-Panlabs selectivity data (BI). Particulars: Compound concentration 10.0 uM; call rule not given here.
Data set [2] has as its target Sodium-dependent noradrenaline transporter (Homo sapiens) (UniProt P23975). The following applies: Compound concentration 10.0 uM.
The target of data set [3] is Muscarinic acetylcholine receptor M1 (Rattus norvegicus) (UniProt P08482). In words: MUSCARIN/OTM Eurofins-Panlabs selectivity data (BI). Particulars: Compound concentration 10.0 uM.
Data set [4] deals with Amine oxidase [flavin-containing] B (MAO-B) (Homo sapiens, UniProt P27338). Description: MAOB Eurofins-Panlabs selectivity data (BI). Also noted: mode of action inhibitor. The following applies: compound concentration 10 uM, read-out: % Ctrl.
The target of data set [5] is Beta-2 adrenergic receptor (Rattus norvegicus) (UniProt P10608). In words: BETA/R Eurofins-Panlabs selectivity data (BI). Particulars: Compound concentration 10.0 uM.
In data set [6] the target is Small conductance calcium-activated potassium channel protein 1 (Rattus norvegicus) (UniProt P70606). In words: K+/SKCA Eurofins-Panlabs selectivity data (BI). Particulars: Compound concentration 10.0 uM.
Data set [7] deals with Sodium/potassium-transporting ATPase subunit alpha-1 (Sus scrofa) (UniProt P05024). In words: ATP NA+/K+PI Eurofins-Panlabs selectivity data (BI). The following applies: Compound concentration 10.0 uM.
Data set [8] concerns the target 5-hydroxytryptamine receptor 5A (Homo sapiens) (UniProt P47898). Description: 5HT5A/HU Eurofins-Panlabs selectivity data (BI). The following applies: Compound concentration 10.0 uM.
In data set [9] the target is Type-1 angiotensin II receptor (Oryctolagus cuniculus) (UniProt P34976). In words: AT1 Eurofins-Panlabs selectivity data (BI). Particulars: Homo sapiens; Compound concentration 10.0 uM.
In data set [10] the target is Histamine H3 receptor (Homo sapiens) (UniProt Q9Y5N1). In words: H3/H Eurofins-Panlabs selectivity data (BI). The following applies: Compound concentration 10.0 uM.
The target of data set [11] is Vasopressin V2 receptor (Homo sapiens) (UniProt P30518). Description: VASOPRE_V2 Eurofins-Panlabs selectivity data (BI). Particulars: Compound concentration 10.0 uM.
Data set [12] has as its target GABA-A receptor; anion channel (Rattus norvegicus) (UniProt O09028+P15431+P18506+P18508+P19969+P20236+P23574+P23576+P28471+P28473+P30191+P62813+P63079+P63138+Q91ZM7+Q9ES14). The following applies: Compound concentration 10.0 uM.
Data set [13] deals with Sigma non-opioid intracellular receptor 1 (Homo sapiens) (UniProt Q99720). Particulars: Compound concentration 10.0 uM.
The target of data set [14] is Histamine H1 receptor (Homo sapiens) (UniProt P35367). In words: H1/H Eurofins-Panlabs selectivity data (BI). Particulars: Compound concentration 10.0 uM.
Data set [15] concerns the target GABA B receptor (Rattus norvegicus) (UniProt Q9Z0U4+O88871). In words: GABAB/RA Eurofins-Panlabs selectivity data (BI). The format is protein-complex assay. The following applies: Compound concentration 10.0 uM.
For data set [16], the target named is Acetylcholine receptor subunit alpha (Homo sapiens) (UniProt P02708). Description: NACH/H Eurofins-Panlabs selectivity data (BI). Particulars: Compound concentration 10.0 uM.
In data set [17] the target is Calcitonin-gene-related peptide receptor, CALCRL/RAMP1 (Homo sapiens) (UniProt O60894+Q16602). Description: CGRP/HU Eurofins-Panlabs selectivity data (BI). The following applies: Compound concentration 10.0 uM. Type of data set: protein-complex assay.
For a further data set, the species on record is Rattus norvegicus. The following applies: Compound concentration 10.0 uM.
In data set [18] the target is Serotonin 2 (5-HT2) receptor (Rattus norvegicus) (UniProt P30994+P08909+P14842). In words: 5HT2/R Eurofins-Panlabs selectivity data (BI). Type of data set: protein assay. Particulars: Compound concentration 10.0 uM.
Data set [19] deals with Potassium voltage-gated channel subfamily A member 1 (Rattus norvegicus) (UniProt P10499). In words: K+/KA/R Eurofins-Panlabs selectivity data (BI). The following applies: Compound concentration 10.0 uM.
Data set [20] concerns the target Voltage-dependent L-type calcium channel subunit alpha-1C (diltiazem site) (Rattus norvegicus, UniProt P22002). In words: CA+/DILSI/RA Eurofins-Panlabs selectivity data (BI). Particulars: compound concentration 10 uM, read-out: % Ctrl.
The species entered for another data set is Cavia porcellus. Description: ATRANS Eurofins-Panlabs selectivity data (BI). The following applies: Compound concentration 10.0 uM.
Data set [21] deals with T1, Thromboxane-A synthase (Homo sapiens) (UniProt P24557).
T1 sequence (whole entry): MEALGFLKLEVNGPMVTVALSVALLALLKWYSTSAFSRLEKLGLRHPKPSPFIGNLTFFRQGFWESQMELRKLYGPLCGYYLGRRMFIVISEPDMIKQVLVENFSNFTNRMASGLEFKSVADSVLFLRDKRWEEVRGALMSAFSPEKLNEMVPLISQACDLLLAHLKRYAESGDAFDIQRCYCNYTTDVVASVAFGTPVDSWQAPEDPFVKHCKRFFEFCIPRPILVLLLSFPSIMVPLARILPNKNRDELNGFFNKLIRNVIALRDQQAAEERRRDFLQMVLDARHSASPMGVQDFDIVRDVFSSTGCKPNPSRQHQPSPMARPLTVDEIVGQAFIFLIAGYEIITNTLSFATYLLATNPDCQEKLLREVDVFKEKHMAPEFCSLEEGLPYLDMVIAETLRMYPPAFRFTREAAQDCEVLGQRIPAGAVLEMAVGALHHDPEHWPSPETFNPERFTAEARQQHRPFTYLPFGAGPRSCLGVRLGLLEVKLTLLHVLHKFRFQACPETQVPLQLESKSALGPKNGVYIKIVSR
Description: THRO SYN(HU) Eurofins-Panlabs selectivity data (BI).

The target in data set [22] is Carbonic anhydrase 6 (Homo sapiens) (UniProt P23280). Description: CANHYDRASE Eurofins-Panlabs selectivity data (BI). Particulars: Compound concentration 10.0 uM.
Data set [23] addresses Adrenergic receptor alpha-1 (Rattus norvegicus) (UniProt P15823+P23944+P43140). In words: ALPHA1/R Eurofins-Panlabs selectivity data (BI). Type of data set: protein assay. Particulars: Compound concentration 10.0 uM.
Data set [24] concerns the target ATP-sensitive inward rectifier potassium channel 1 isoform X1 (Mesocricetus auratus) (UniProt A0A1U8CU73). In words: K+/KATP/HA Eurofins-Panlabs selectivity data (BI). Particulars: Compound concentration 10.0 uM.
The target of data set [25] is D(2) dopamine receptor (Homo sapiens) (UniProt P14416). In words: D2L/H Eurofins-Panlabs selectivity data (BI). The following applies: Compound concentration 10.0 uM.
Data set [26] concerns the target Sodium-dependent serotonin transporter (Homo sapiens) (UniProt P31645). In words: 5HTTRANS/HU Eurofins-Panlabs selectivity data (BI). Particulars: Compound concentration 10.0 uM.
The target of data set [27] is Sodium-dependent noradrenaline transporter (Homo sapiens) (UniProt P23975). In words: NETRANS/H Eurofins-Panlabs selectivity data (BI). Particulars: Compound concentration 10.0 uM.
For data set [28], the target named is Muscarinic acetylcholine receptor (Rattus norvegicus) (UniProt P08482+P08483+P08485+P08911+P10980). In words: MUSCARIN/NS Eurofins-Panlabs selectivity data (BI). The following applies: Compound concentration 10.0 uM. The format is protein assay.
The target in data set [29] is Muscarinic acetylcholine receptor M1 (Homo sapiens) (UniProt P11229). Particulars: Compound concentration 10.0 uM.
The target of data set [30] is Muscarinic acetylcholine receptor M5 (Homo sapiens) (UniProt P08912). Particulars: Compound concentration 10.0 uM.
In data set [31] the target is Sigma intracellular receptor 2 (Homo sapiens, UniProt Q5BJF2). In words: GPCRScan assay: inhibition of Sigma 2. Also noted: radioligand conc. used [nm] 5.0, parental cells HEKT.
Data set [32] has as its target Muscarinic acetylcholine receptor M2 (Homo sapiens) (UniProt P08172). Particulars: Compound concentration 10.0 uM.

Sodium-dependent noradrenaline transporter (Homo sapiens), sequence (P23975 whole entry): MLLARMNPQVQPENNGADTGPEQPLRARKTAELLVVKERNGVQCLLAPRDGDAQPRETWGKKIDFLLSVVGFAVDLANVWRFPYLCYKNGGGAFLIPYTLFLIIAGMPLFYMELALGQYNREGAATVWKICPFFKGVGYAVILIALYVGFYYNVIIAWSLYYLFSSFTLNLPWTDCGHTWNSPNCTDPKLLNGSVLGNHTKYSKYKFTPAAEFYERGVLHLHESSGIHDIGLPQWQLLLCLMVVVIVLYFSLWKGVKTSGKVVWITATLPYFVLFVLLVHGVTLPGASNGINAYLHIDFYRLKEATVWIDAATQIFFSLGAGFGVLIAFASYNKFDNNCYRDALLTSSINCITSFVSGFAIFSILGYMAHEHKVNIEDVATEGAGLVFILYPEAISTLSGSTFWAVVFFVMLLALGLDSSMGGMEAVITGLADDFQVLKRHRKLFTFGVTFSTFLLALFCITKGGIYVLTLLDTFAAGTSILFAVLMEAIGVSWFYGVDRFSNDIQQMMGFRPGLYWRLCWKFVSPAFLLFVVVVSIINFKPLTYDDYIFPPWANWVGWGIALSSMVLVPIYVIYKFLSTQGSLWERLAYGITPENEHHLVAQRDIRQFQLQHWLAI
Sigma intracellular receptor 2, sequence (Q5BJF2 whole entry): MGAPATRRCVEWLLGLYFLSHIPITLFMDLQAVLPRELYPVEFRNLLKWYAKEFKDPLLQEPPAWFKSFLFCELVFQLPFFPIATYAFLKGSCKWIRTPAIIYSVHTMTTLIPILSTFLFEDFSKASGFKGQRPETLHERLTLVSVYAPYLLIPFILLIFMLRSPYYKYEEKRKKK
Small conductance calcium-activated potassium channel protein 1 (Rattus norvegicus), sequence (P70606 whole entry): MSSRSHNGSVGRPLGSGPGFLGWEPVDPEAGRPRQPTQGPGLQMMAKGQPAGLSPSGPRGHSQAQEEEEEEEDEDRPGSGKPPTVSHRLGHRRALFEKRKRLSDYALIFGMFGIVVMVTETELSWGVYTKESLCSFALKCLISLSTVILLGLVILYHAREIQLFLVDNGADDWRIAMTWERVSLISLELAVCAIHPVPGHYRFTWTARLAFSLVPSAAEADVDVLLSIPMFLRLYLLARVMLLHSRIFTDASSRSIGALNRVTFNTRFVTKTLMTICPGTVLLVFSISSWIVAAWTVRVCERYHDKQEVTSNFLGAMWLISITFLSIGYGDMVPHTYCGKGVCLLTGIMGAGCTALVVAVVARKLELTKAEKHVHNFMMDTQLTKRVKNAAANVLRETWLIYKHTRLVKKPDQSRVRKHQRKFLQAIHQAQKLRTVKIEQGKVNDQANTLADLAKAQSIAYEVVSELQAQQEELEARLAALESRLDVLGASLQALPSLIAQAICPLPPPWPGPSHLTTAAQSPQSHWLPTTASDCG
Voltage-dependent L-type calcium channel subunit alpha-1C (diltiazem site), sequence (P22002 whole entry): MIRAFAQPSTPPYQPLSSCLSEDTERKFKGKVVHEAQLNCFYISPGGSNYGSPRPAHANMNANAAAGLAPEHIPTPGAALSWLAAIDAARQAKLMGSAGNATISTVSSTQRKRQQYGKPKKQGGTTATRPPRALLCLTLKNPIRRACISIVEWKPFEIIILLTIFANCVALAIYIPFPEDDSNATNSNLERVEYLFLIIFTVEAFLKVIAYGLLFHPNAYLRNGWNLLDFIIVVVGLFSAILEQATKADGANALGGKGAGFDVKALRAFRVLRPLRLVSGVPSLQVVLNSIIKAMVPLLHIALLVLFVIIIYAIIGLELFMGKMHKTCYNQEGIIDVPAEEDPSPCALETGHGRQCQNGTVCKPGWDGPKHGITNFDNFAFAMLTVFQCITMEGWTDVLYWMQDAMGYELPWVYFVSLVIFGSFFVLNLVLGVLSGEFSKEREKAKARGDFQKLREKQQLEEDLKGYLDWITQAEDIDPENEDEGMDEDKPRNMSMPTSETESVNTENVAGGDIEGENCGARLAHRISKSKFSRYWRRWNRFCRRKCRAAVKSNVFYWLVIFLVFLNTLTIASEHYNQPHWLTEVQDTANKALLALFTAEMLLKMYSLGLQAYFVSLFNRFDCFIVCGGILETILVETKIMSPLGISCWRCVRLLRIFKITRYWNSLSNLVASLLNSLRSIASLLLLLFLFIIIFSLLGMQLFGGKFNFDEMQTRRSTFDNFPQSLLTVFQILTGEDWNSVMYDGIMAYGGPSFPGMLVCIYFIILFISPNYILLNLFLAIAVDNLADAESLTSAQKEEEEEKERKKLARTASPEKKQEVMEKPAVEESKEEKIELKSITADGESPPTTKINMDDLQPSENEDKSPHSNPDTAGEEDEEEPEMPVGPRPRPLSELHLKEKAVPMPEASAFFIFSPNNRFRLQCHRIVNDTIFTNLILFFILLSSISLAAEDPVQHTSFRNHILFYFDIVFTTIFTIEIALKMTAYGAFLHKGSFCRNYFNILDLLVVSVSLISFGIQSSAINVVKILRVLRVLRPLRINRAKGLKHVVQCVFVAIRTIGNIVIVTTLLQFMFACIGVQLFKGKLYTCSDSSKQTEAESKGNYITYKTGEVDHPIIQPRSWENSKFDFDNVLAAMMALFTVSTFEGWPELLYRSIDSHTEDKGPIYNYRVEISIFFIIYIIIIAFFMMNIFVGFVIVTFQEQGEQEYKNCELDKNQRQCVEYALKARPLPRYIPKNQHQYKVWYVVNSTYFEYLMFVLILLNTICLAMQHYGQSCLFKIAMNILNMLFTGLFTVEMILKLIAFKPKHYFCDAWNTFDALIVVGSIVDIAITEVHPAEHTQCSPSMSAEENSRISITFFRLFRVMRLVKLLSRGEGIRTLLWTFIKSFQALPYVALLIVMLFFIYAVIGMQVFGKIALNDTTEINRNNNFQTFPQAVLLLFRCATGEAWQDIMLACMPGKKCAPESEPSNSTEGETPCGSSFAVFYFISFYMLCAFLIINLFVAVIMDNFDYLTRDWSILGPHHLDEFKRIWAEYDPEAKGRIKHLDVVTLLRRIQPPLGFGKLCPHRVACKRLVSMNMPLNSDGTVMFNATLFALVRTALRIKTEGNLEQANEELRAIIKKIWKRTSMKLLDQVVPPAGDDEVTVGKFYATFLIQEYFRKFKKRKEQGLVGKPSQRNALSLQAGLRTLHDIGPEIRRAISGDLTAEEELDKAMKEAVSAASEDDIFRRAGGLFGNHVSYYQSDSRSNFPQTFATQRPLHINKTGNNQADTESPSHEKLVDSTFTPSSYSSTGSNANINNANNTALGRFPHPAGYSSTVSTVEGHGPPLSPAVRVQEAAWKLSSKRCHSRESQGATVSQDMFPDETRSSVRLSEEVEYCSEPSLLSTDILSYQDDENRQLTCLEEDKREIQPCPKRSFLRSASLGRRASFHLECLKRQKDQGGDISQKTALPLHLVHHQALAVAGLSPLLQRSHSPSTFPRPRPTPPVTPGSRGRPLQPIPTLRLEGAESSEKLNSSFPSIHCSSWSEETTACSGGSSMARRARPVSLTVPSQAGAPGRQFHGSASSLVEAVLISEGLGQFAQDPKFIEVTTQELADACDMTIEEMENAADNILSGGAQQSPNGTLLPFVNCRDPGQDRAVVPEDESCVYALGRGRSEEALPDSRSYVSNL
D(2) dopamine receptor (Homo sapiens), sequence (P14416 whole entry): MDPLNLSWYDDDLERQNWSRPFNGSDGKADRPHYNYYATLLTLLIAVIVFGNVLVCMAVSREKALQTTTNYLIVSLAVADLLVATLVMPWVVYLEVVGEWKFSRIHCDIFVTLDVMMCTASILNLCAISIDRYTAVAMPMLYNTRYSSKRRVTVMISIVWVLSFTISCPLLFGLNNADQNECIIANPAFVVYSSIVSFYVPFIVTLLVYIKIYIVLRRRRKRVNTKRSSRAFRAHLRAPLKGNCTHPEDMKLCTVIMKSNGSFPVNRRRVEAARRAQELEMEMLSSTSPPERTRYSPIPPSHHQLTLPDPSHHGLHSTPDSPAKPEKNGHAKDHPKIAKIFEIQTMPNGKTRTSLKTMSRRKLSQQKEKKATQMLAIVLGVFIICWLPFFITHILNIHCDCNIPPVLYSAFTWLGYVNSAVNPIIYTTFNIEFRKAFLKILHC
Potassium voltage-gated channel subfamily A member 1 (Rattus norvegicus), sequence (P10499 whole entry): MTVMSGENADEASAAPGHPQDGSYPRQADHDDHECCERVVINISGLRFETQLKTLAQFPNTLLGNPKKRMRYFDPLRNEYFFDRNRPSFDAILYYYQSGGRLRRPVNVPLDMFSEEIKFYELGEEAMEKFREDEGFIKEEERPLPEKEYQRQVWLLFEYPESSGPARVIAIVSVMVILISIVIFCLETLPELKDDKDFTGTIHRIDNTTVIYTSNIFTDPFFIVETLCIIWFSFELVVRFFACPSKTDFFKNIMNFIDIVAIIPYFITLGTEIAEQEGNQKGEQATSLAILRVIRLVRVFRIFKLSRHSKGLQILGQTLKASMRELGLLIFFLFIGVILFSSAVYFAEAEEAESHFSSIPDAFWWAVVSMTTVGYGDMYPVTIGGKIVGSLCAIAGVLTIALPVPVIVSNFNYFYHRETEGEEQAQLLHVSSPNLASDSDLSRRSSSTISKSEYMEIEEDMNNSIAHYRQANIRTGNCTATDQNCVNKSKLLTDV
ATP-sensitive inward rectifier potassium channel 1 isoform X1 (Mesocricetus auratus), sequence (A0A1U8CU73 as listed by the source): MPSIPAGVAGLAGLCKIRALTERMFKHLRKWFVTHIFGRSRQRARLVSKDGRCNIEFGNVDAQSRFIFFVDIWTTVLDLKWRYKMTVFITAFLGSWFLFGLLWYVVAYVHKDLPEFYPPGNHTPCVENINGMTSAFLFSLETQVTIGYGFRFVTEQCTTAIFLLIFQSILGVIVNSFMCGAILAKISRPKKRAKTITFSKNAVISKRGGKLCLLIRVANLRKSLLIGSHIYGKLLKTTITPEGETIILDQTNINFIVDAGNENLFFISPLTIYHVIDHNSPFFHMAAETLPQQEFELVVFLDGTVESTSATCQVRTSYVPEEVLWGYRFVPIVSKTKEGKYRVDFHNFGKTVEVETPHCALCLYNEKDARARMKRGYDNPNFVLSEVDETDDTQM

Turning to `C[C@H](NC(=O)c1cnc2n1[C@](C)(Cc1ccc(C#N)cc1)C(=O)N2c1cc(Cl)c(F)c(Cl)c1)C(=O)NC1(c2ccccn2)CC1` [BI 1950], the residual activity in data set [1] is 73%; in [3] it was 77%; in data set [5] it was 84%; in data set [6] it was 108%; in data set [7], 109%; in [8] it was 105%. The residual activity in data set [9] is 90%; in data set [10] it was 98%; in data set [11], 85%; in [14] it was 109%; in [15], 111%; in data set [16], 112%. The residual activity is 105% in data set [17]; 98% in [18]; 92% in data set [19]; 92% in the data set filed under Cavia porcellus; 94% in [21] (Compound concentration 0.03 uM); 93% in [21] (Compound concentration 0.1 uM). Further, the residual activity in [21] (Compound concentration 0.3 uM) was 91%; in [21] (Compound concentration 1.0 uM) it was 82%; in data set [21] (Compound concentration 3.0 uM) it was 74%; in data set [21] (Compound concentration 10.0 uM) it was 47%; in data set [22], 86%; in [23] it was 102%. Also, the residual activity in data set [24] is 107%; in [25], 115%; in data set [26], 119%; in [27], 72%; in data set [28], 109%. For the same compound, the inhibition in [2] was -2.81%; in [12], 4.9%; in data set [13], -6.44%; in the data set listed under Rattus norvegicus, 13.1%. The activity at 10 µM is recorded as 101% (not active) in data set [4] and 69% (not active) in data set [20].
For the compound `C[C@@]1(Cc2ccc(C#N)cc2)C(=O)N(c2cc(Cl)cc(Cl)c2)c2ncc(C(=O)NC3(c4nc(C5CCC5)no4)CC3)n21` [BI 9446], the values for the inhibition in data set [29], in data set [30] and in [32] were -8.37%, -8.46% and -8.35%, respectively. Also, the Ki is 558 nM in [31] (read-out: Ki) and 507 nM in [31] (read-out: pKi (converted)).
